Test results as given in ChEMBL document CHEMBL3046161, “Synthesis of potential antitubercular and antimicrobial s-triazine-based scaffolds via Suzuki cross-coupling reaction” (2013).
Converted amounts (≈) assume the structure as drawn.

Assays:
[1] = tested on: Salmonella typhi; assay: Antibacterial activity against Salmonella enterica subsp. enterica serovar Typhi MTCC 733 assessed as growth inhibition at 100 ug/disk after 24 hr by agar disk diffusion method; format: functional; details: MTCC 733, 24 h, read-out: IZ
[2] = tested on: Klebsiella pneumoniae; assay: Antibacterial activity against Klebsiella pneumoniae MTCC 109 assessed as growth inhibition after 24 hr by agar streak dilution method; format: functional; details: MTCC 109, 24 h
[3] = tested on: Salmonella typhi; assay: Antibacterial activity against Salmonella enterica subsp. enterica serovar Typhi MTCC 733 assessed as growth inhibition after 24 hr by agar streak dilution method; format: functional; details: MTCC 733, 24 h
[4] = tested on: Pseudomonas aeruginosa; assay: Antibacterial activity against Pseudomonas aeruginosa MTCC 741 assessed as growth inhibition after 24 hr by agar streak dilution method; format: functional; details: MTCC 741, 24 h
[5] = tested on: Bacillus cereus; assay: Antibacterial activity against Bacillus cereus MTCC 430 assessed as growth inhibition after 24 hr by agar streak dilution method; format: functional; details: MTCC 430, 24 h
[6] = tested on: Staphylococcus aureus; assay: Antibacterial activity against Staphylococcus aureus MTCC 96 assessed as growth inhibition after 24 hr by agar streak dilution method; format: functional; details: MTCC 96, 24 h
[7] = tested on: Shigella flexneri; assay: Antibacterial activity against Shigella flexneri MTCC 1457 assessed as growth inhibition at 100 ug/disk after 24 hr by agar disk diffusion method; format: functional; details: MTCC 1457, 24 h, read-out: IZ
[8] = tested on: Proteus vulgaris; assay: Antibacterial activity against Proteus vulgaris MTCC 1771 assessed as growth inhibition at 100 ug/disk after 24 hr by agar disk diffusion method; format: functional; details: MTCC 1771, 24 h, read-out: IZ
[9] = tested on: Bacillus cereus; assay: Antibacterial activity against Bacillus cereus MTCC 430 assessed as growth inhibition at 100 ug/disk after 24 hr by agar disk diffusion method; format: functional; details: MTCC 430, 24 h, read-out: IZ
[10] = tested on: Staphylococcus aureus; assay: Antibacterial activity against Staphylococcus aureus MTCC 96 assessed as growth inhibition at 100 ug/disk after 24 hr by agar disk diffusion method; details: MTCC 96, 24 h, read-out: IZ
[11] = tested on: Shigella flexneri; assay: Antibacterial activity against Shigella flexneri MTCC 1457 assessed as growth inhibition after 24 hr by agar streak dilution method; format: functional; details: MTCC 1457, 24 h
[12] = tested on: Proteus vulgaris; assay: Antibacterial activity against Proteus vulgaris MTCC 1771 assessed as growth inhibition after 24 hr by agar streak dilution method; format: functional; details: MTCC 1771, 24 h
[13] = tested on: Klebsiella pneumoniae; assay: microbe, parasite or virus in culture; details: MTCC 109, 24 h, read-out: IZ
Description: Antibacterial activity against Klebsiella pneumoniae MTCC 109 assessed as growth inhibition at 100 ug/disk after 24 hr by agar disk diffusion method

[14] = tested on: Pseudomonas aeruginosa; assay: microbe, parasite or virus in culture; details: MTCC 741, 24 h, read-out: IZ
Description: Antibacterial activity against Pseudomonas aeruginosa MTCC 741 assessed as growth inhibition at 100 ug/disk after 24 hr by agar disk diffusion method

[15] = tested on: Escherichia coli; assay: microbe, parasite or virus in culture; details: MTCC 739, 24 h, read-out: IZ
Description: Antibacterial activity against Escherichia coli MTCC 739 assessed as growth inhibition at 100 ug/disk after 24 hr by agar disk diffusion method

## O=C(O)c1cn(C2CC2)c2cc(N3CCNCC3)c(F)cc2c1=O [CIPROFLOXACIN]
[1]
  zone of inhibition at 100 µg/disc: 30 mm
[2]
  MIC: 0.78 µg/mL (≈ 2.35 µM)
[3]
  MIC: 0.39 µg/mL (≈ 1.18 µM)
[4]
  MIC: 0.78 µg/mL (≈ 2.35 µM)
[5]
  MIC: 0.39 µg/mL (≈ 1.18 µM)
[6]
  MIC: 1.56 µg/mL (≈ 4.71 µM)
[7]
  zone of inhibition at 100 µg/disc: 32 mm
[8]
  zone of inhibition at 100 µg/disc: 31 mm
[9]
  zone of inhibition at 100 µg/disc: 31 mm
[10]
  zone of inhibition at 100 µg/disc: 30 mm
[11]
  MIC: 1.56 µg/mL (≈ 4.71 µM)
[12]
  MIC: 0.39 µg/mL (≈ 1.18 µM)
[13]
  zone of inhibition at 100 µg/disc: 33 mm
[14]
  zone of inhibition at 100 µg/disc: 33 mm
[15]
  zone of inhibition at 100 µg/disc: 32 mm
